In patent US7662842B2, “Thiazolidinone amides, thiazolidine carboxylic acid amides, and serine amides, including polyamine conjugates thereof, as selective anti-cancer agents” (Ohio State Univesity Research Foundation, priority 2003, dated 2010):

Experiments:
WM-164 cells = test: Sulforhodamine B assay in melanoma cells, WM-164; assay type: cell-based; settings: Homo sapiens, WM164, read-out: IC50 WM-164; SRB assay, 48 h incubation; melanoma cell line
Protocol: (§1) SKMEL-188 cells were cultured in Ham's F10 medium (Gibco Invitrogen, Inc., Grand Island, N.Y.) plus 5% fetal bovine serum (Cellgro Mediatech, Inc., Herndon, Va.) and 1% antibiotic/antimycotic mixture (Sigma-Aldrich, Inc., St. Louis, Mo.). WM-164 cells (gift of Dr. Meenhard Herlyn, Wistar Inst., Philadelphia, Pa.) and human dermal fibroblasts (Cascade Biologics, Inc., Portland, Oreg.) were cultured in DMEM medium (Cellgro Mediatech, Inc.) supplemented with 5% fetal bovine serum, 1% antibiotic.antimycotic mixture and bovine insulin ([…], Sigma-Aldrich, Inc.). Human dermal fibroblasts were used as a control to examine the effects of compounds on stromal environment. Thus, the effect of the various compounds on melanoma cells versus fibroblasts would document their potential selectivity.
(§2) Sulforhodamine B Assay: Cells were seeded into 96-well plates at 5000 cells/well. After 12 hours, media were changed and serial dilutions of compounds were added. Cells were incubated with each compound for 48 hours. Fresh media containing the test compound were changed ever 24 hours. Thereafter, total cell protein corresponding to cell numbers (both viable and non-viable cells) were measured using the sulforhodamine B (SRB) assay according to manufacturer's protocol (Sigma-Aldrich, Inc.) (Rubinstein et al., “Comparison of in vitro Anticancer Drug-screening Data Generated with a Tetrazolium Assay Versus a Protein Assay Against a Diverse Panel of Human Tumor Cell Lines,” J. Natl. Cancer Inst. 82:1113-1118 (1990); Dothager et al., “Synthesis and Identification of Small Molecules that Potently Induce Apoptosis in Melanoma Cells Through GI Cell Cycle Arrest,” J. Am. Chem. Soc. 127:8686-8696 (2005), each of which is hereby incorporated by reference in its entirety). Briefly, cells were fixed with trichloracetic acid, washed and incubated with sulforhodamine B for 30 minutes. After another wash, dye incorporated into the cells was solubilized and measured using a plate reader at 565 nm.
(§3) Statistical Analysis: Data is presented as mean±SEM (n=6-8). […] Statistical analyses were performed with Student's t-test (*p<0.05; **p<0.005).
(§4) DTIC and Taxol were assayed in the same way for comparison and served as internal quality controls in the different batches of assay. For comparison, the activities of 5R and 5S were measured.

human dermal fibroblasts = test: Sulforhodamine B assay, fibroblast control cells; assay type: cell-based; settings: Homo sapiens, Fibroblast, 48 h, SRB assay, 48 h incubation
Protocol: as §1, §2, §3, §4

SKMEL-188 melanoma cells = test: Sulforhodamine B assay in melanoma cells, SKMEL-188; assay type: cell-based; settings: SK-MEL-188, 48 h, SRB assay, 48 h incubation; melanoma cell line
Protocol: as §1, §2, §3, §4

LNCaP cells = test: DNA fragmentation by agarose gel electrophoresis; assay type: cell-based, human; settings: treatment for 24 to […], 3-50 μM, FIGS. 4A-B
Protocol: In FIG. 4B, the dose and exposure time are indicated for compound 5 as follows: lane 1, 100 bp DNA marker; lane 2, 5 μM for 24 h; lane 3, 5 μM for 48 h; lane 4, 5 μM for 72 h; lane 5, 5 μM for 96 h; lane 6, 3 μM for 96 h; lane 7, 8 μM for 48 h; and lane 8, 8 μM for 72 h.

## CCCCCCCCCCCCCCCCCCNC(=O)[C@@H]1CSC(c2ccccc2)N1.Cl (mixture of isomers) [Compound 5, (2RS, 4R)-2-Phenylthiazolidine-4-carboxylic acid octadecylamide Hydrochloride]
WM-164 cells
  IC50: > 50 µM
Human dermal fibroblasts
  IC50: > 50 µM
SKMEL-188 melanoma cells
  IC50: 39.6 µM
LNCaP cells
  DNA fragmentation (apoptosis) in LNCaP cells: induce cell apoptosis
